Measurements as given in patent publication US10864197B2, “Biphenyl sulfonamide compounds for the treatment of kidney diseases or disorders” (Retrophin, Inc., priority 2016, dated 2020).

Legend:
[1] = DUET trial: systolic and diastolic blood pressure; assay type: in vivo, human; conditions: double-blind period; irbesartan n=32, sparsentan n=64
Description: DUET trial is a phase 2, double-blind, randomized, active-control, dose-escalation study (NCT01613118) that evaluates the efficacy and safety of sparsentan as a treatment for primary focal segmental glomerulosclerosis (FSGS), a rare disorder characterized by massive proteinuria and progressive loss of kidney function. Patients (ranging in age from 8 years to 75 years) with biopsy-proven primary FSGS (or documentation of a genetic mutation in a podocyte protein associated with the disease) having baseline urine protein to creatinine (“UP/C”) ratios greater than 1 g/g and estimated glomerular filtration rates greater than 30 ml/min were eligible for the study. […]
Patients who signed consent and met all inclusion and exclusion criteria during the screening phase underwent a 2-week angiotensin receptor blocker (ARB) and angiotensin converting enzyme (ACE) inhibitor washout period before being randomly assigned to one of the three escalating dose cohorts receiving sparsentan (200 mg/day; 400 mg/day; and 800 mg/day) or a fixed maximal dose of active control (the ARB irbesartan, at 300 mg/day) in a 3:1 ratio within each cohort. The primary endpoint was the change in UP/C ratio (determined as a measure of urinary protein excretion) from baseline. […]

[2] = DUET trial: treatment emergent adverse events and edema severity; assay type: in vivo, human; conditions: for Patients with Edema, Severity Grade 0 / Patients with Edema, Severity Grade 1+ to 2+ / Patients with Edema, Severity Grade 3+ to 4+ / Percent of patients having treatment emergent adverse effects: Any / Percent of patients having treatment emergent adverse effects: Drug-related / Percent of patients having treatment emergent adverse effects: Leading to dose change or interruption / Percent of patients having treatment emergent adverse effects: Leading to drug discontinuation / Percent of patients having treatment emergent adverse effects: Leading to study withdrawal / Percent of patients having treatment emergent adverse effects: Serious / Percent of patients with Cough / Percent of patients with Diarrhea / Percent of patients with Dizziness / Percent of patients with Edema/edema peripheral / Percent of patients with Fatigue / Percent of patients with Headache / Percent of patients with Hypotension/orthostatic hypotension / Percent of patients with Muscle spasms / Percent of patients with Nasal congestion / Percent of patients with Nausea / Percent of patients with Upper abdominal pain / Percent of patients with Upper respiratory tract infection / Percent of patients with Vomiting: human, in vivo; for Percent of patients having treatment emergent adverse effects: Death: irbesartan n=36, sparsentan all doses n=73
Description: DUET trial is a phase 2, double-blind, randomized, active-control, dose-escalation study (NCT01613118) that evaluates the efficacy and safety of sparsentan as a treatment for primary focal segmental glomerulosclerosis (FSGS), a rare disorder characterized by massive proteinuria and progressive loss of kidney function. Patients (ranging in age from 8 years to 75 years) with biopsy-proven primary FSGS (or documentation of a genetic mutation in a podocyte protein associated with the disease) having baseline urine protein to creatinine (“UP/C”) ratios greater than 1 g/g and estimated glomerular filtration rates greater than 30 ml/min were eligible for the study. The inclusion criteria also included a mean seated blood pressure >[…] and <145/96 mmHg for patients aged 18 years or older, or, for patients aged <18 years of age, a mean seated blood pressure of >90/60 mmHg and <95th percentile for age, gender, and height. The inclusion criteria included an allowance for a stable dose of immunosuppressive medication for ≥1 month. Exclusion criteria included secondary FSGS; significant medical conditions related to cardiac, hepatic, or immune function; body mass index >[…] for adults or in the 99th percentile plus 5 for pediatric patients; hematocrit <27% or hemoglobin <[…]; serum potassium >5.5 mEq/L; and women who were pregnant, breastfeeding, or of child-bearing potential who were unwilling to use two methods of contraception.
Patients who signed consent and met all inclusion and exclusion criteria during the screening phase underwent a 2-week angiotensin receptor blocker (ARB) and angiotensin converting enzyme (ACE) inhibitor washout period before being randomly assigned to one of the three escalating dose cohorts receiving sparsentan (200 mg/day; 400 mg/day; and 800 mg/day) or a fixed maximal dose of active control (the ARB irbesartan, at 300 mg/day) in a 3:1 ratio within each cohort. The primary endpoint was the change in UP/C ratio (determined as a measure of urinary protein excretion) from baseline. The proportion of patients achieving UP/C ratio ≤1.5 g/g with >40% reduction in UP/C ratio at Week 8, a modified responder analysis, was evaluated as secondary endpoint.
The incidences of specific treatment emergent adverse events for which the incidence was greater than 5% across all patients are shown in Table 7. Symptoms such as headache, dizziness, and edema may be associated with hypotension and some of those symptoms were more frequent in patients treated with sparsentan relative to those patients treated with irbesartan. However, there was no significant different between irbesartan-treated patients and sparsentan-treated patients in the worsening of existing edema (Table 8).

Structure (SMILES)	mean systolic and diastolic blood pressures relative to baseline [1]	Patients with Edema, Severity Grade 0 [2] [%]	Patients with Edema, Severity Grade 1+ to 2+ [2] [%]	Patients with Edema, Severity Grade 3+ to 4+ [2] [%]	Patients with Edema, Severity Grade 0 ([2]; 8 weeks) [%]	Patients with Edema, Severity Grade 1+ to 2+ ([2]; 8 weeks) [%]	Patients with Edema, Severity Grade 3+ to 4+ ([2]; 8 weeks) [%]	Percent of patients having treatment emergent adverse effects: Any ([2]; 8 weeks) [%]	Percent of patients having treatment emergent adverse effects: Drug-related ([2]; 8 weeks) [%]	Percent of patients having treatment emergent adverse effects: Leading to dose change or interruption ([2]; 8 weeks) [%]	Percent of patients having treatment emergent adverse effects: Leading to drug discontinuation ([2]; 8 weeks) [%]	Percent of patients having treatment emergent adverse effects: Leading to study withdrawal ([2]; 8 weeks) [%]	Percent of patients having treatment emergent adverse effects: Serious ([2]; 8 weeks) [%]	Percent of patients with Cough ([2]; 8 weeks) [%]	Percent of patients with Diarrhea ([2]; 8 weeks) [%]	Percent of patients with Dizziness ([2]; 8 weeks) [%]	Percent of patients with Edema/edema peripheral ([2]; 8 weeks) [%]	Percent of patients with Fatigue ([2]; 8 weeks) [%]	Percent of patients with Headache ([2]; 8 weeks) [%]	Percent of patients with Hypotension/orthostatic hypotension ([2]; 8 weeks) [%]	also measured
CCCCC1=NC2(CCCC2)C(=O)N1Cc1ccc(-c2ccccc2-c2nnn[nH]2)cc1 [Irbesartan, irbesartan, reference compound]	reductions	76	21	3	86	14	0	72.2	36.1	8.3	2.8	2.8	2.8	5.6	2.8	11.1	2.8	11.1	19.4	8.3	Percent of patients with Muscle spasms ([2]; 8 weeks): 5.6%; Percent of patients with Nasal congestion ([2]; 8 weeks): 11.1%; Percent of patients with Nausea ([2]; 8 weeks): 8.3%; Percent of patients with Upper abdominal pain ([2]; 8 weeks): 5.6%; Percent of patients with Upper respiratory tract infection ([2]; 8 weeks): 5.6%; Percent of patients with Vomiting ([2]; 8 weeks): 2.8%; Percent of patients having treatment emergent adverse effects: Death [2]: 0%
CCCCC1=NC2(CCCC2)C(=O)N1Cc1ccc(-c2ccccc2S(=O)(=O)Nc2noc(C)c2C)c(COCC)c1 [Sparsentan, 4′-((2-butyl-4-oxo-1,3-diazaspiro[4.4]non-1-en-3-yl)methyl)-N-(4,5-dimethylisoxazol-3-yl)-2′-(ethoxymethyl)-[1,1′-biphenyl]-2-sulfonamide]	reduction was statistically significant	66	32	2	65	30	5	76.7	43.8	23.3	4.1	2.7	2.7	4.1	8.2	13.7	12.3	4.1	19.2	16.4	Percent of patients with Muscle spasms ([2]; 8 weeks): 0%; Percent of patients with Nasal congestion ([2]; 8 weeks): 2.7%; Percent of patients with Nausea ([2]; 8 weeks): 12.3%; Percent of patients with Upper abdominal pain ([2]; 8 weeks): 5.5%; Percent of patients with Upper respiratory tract infection ([2]; 8 weeks): 2.7%; Percent of patients with Vomiting ([2]; 8 weeks): 8.2%; Percent of patients having treatment emergent adverse effects: Death [2]: 0%
